The values below are quoted from earlier work in patent US20260110035A1, “DNA REPAIR SIGNATURE AND PREDICTION OF RESPONSE FOLLOWING CANCER THERAPY” (priority 2022, published 2026).

In the data set the test system is stage II/III TNBC. The settings on record: BrighTNess; only carboplatin (Arm B) vs veliparib+carboplatin (Arm A), with paclitaxel followed by AC.

`N.N.O=C([O-])C1(C(=O)[O-])CCC1.[Pt+2]` [carboplatin]: the “difference in pCR rates between Arm B and Arm A” value is recorded as “no substantial difference”.
